Source: patent publication US10098900B2, “Pharmaceutical compositions and their use for treatment of cancer and autoimmune diseases” (ZHEJIANG DTRM BIOPHARMA CO. LTD., priority 2015, dated 2018)
Marks after values point to notes of the source that are not given here.

Key:
[1] = tested on: TMD-8 cell line; assay: Inhibition assay of tumor cell activity (cell viability), TMD-8; assay type: cell-based, human; details: individual compound; for inhibition at 0.01 µM / inhibition at 0.1 µM / inhibition at 1 µM / inhibition at 10 µM / inhibition at 100 µM: Homo sapiens, TMD8, 48 h, read-out: Inh % on TMD-8 cell line (AVG); for Inh % on TMD-8 cell line (AVG): 48 h
Method: Inhibition Assay of Tumor Cell Activity:
Tumor cells (TMD-8, DoHH2 and WSU-DLCL2) were transferred and attached to 96-well plates. After one night, blank buffer and selected concentrations (0.01 nM-100 μM) of the test compound solution were added. After 48 hours incubation, CellTiter-Go was added to lyse the cells. Recording luminescent signal and calculate the percent inhibition of cell viability

[2] = tested on: TMD-8 lymphoma xenograft; assay: Inhibition of tumor growth in vivo, TMD-8 lymphoma xenograft SCID mouse model; details: TMD-8, Oral, BID
Method: Inhibition Study of Tumor Growth In Vivo:
SCID mice or nude mice (weighing about 18 g at the beginning of the experiment) were randomly divided into groups by the software in order to achieve close average weights between groups and control the bias within the allowable range. The mice were injected BTK cell lines (TMD-8, WSU-DLCL2 and DoHH-2) for tumor formation. Inhibitors were administered orally once or twice a day, a total of 14 days, 21 days or 28 days. Body weights and tumor volume were recorded.
Xenograft Tumor Models Inoculated with TMD-8, or DoHH2, or WSU-DLCL2 Tumor Cell Lines:
TMD-8 is a sensitive human diffuse large B-cell lymphoma cell line, and DoHH2 is a more difficult to treat human follicular lymphoma cell line, while WSU-DLCL2 is a multi-drug resistant (MDR) human non-Hodgkin's lymphoma cell line. Drug combination therapies provide better efficacies in all three tumor models than single targeted agent alone.
The TMD-8, DoHH2, WSU-DLCL2 tumor cells were maintained in vitro as a suspension culture in RPMI-1640 medium supplemented with 10% heat inactivated fetal calf serum at 37° C. in an atmosphere of 5% CO2 in air. The tumor cells were routinely subcultured twice weekly. The cells growing in an exponential growth phase were harvested and counted for tumor inoculation. Each mouse was inoculated subcutaneously at the right flank with the tumor cells (10×10^6) in 0.2 ml of PBS with Matrigel (1:1) for tumor development. The treatments were started after the average tumor size reached approximately 100-200 mm^3. Each group consisted of 6-10 tumor-bearing mice. The testing article (vehicle, compound or combination) was orally administrated to the mice according to the predetermined doses for 14-days or 21-days. Animal body weight and tumor volume were measured every 2- or 3-days throughout the treatment.

[3] = tested on: adjuvant-induced arthritis; assay: Adjuvant-induced arthritis (AA/AIA) model in female Lewis rats (paw volume, clinical score, histopathology); assay type: in vivo, rat; parameters: Pathological score (Mean ± SEM), Inflammatory cell infiltration / Pathological score (Mean ± SEM), Pannus growth / Pathological score (Mean ± SEM), Cartilage injury / Pathological score (Mean ± SEM), Bone resorption / Pathological score (Mean ± SEM), Total: scale not given here; details: for Paw volume (mL), Mean: 3 mg/kg BID (positive control)
Text: Adjuvant-Induced Arthritis AA Model: […] All rats except the normal group were immunized with complete Freund's adjuvant (CFA) subcutaneously at the left hind paw to induce arthritis at day 0. […] The treatments were given orally for 3 consecutive weeks. The body weight, paw volume and clinical score were monitored every other day after day 13 throughout the course of the study. At the terminal point, right hind paws were collected for histopathology analysis with H.E. staining.

[2H]/C=C\C(=O)N1CC[C@@H](n2nc(-c3ccc(Oc4c(F)c(F)cc(F)c4F)cc3F)c3c(N)ncnc32)C1 [Compound 7]
inhibition at 0.01 µM ([1]; 0.01 uM (10 nM)): 33.9%
inhibition at 0.1 µM ([1]; 0.1 uM (100 nM)): 58.7%
inhibition at 1 µM ([1]; 1 uM (1,000 nM)): 58.6%
inhibition at 10 µM [1]: 62.9%
inhibition at 100 µM [1]: 99.3%

CC[C@H](Nc1ncnc2[nH]cnc12)c1nc2cccc(F)c2c(=O)n1-c1ccccc1 [Compound 8, Idelalisib]
inhibition at 0.01 µM ([1]; 0.01 uM (10 nM)): 29.4%
inhibition at 0.1 µM ([1]; 0.1 uM (100 nM)): 48.8%
inhibition at 1 µM ([1]; 1 uM (1,000 nM)): 68.9%
inhibition at 10 µM [1]: 87.7%
inhibition at 100 µM [1]: 96.8%
Antitumor effect (%) ([2]; FIG. 3, 21 days, 10 mg/kg): 26%
Antitumor effect (%) ([2]; FIG. 12, 14 days, 10 mg/kg): 48%

C=CC(=O)N1CCC[C@@H](n2nc(-c3ccc(Oc4ccccc4)cc3)c3c(N)ncnc32)C1 [Compound 9, Ibrutinib]
inhibition at 0.01 µM ([1]; 0.01 uM (10 nM)): 56.2%
inhibition at 0.1 µM ([1]; 0.1 uM (100 nM)): 59.1%
inhibition at 1 µM ([1]; 1 uM (1,000 nM)): 66.1%
inhibition at 10 µM [1]: 81.4%
inhibition at 100 µM [1]: 99.9%

N#CC[C@H](C1CCCC1)n1cc(-c2ncnc3[nH]ccc23)cn1 [Compound 10, Ruxolitinib]
inhibition at 0.01 µM ([1]; 0.01 uM (10 nM)): 0.05%
inhibition at 0.1 µM ([1]; 0.1 uM (100 nM)): -5.53%
inhibition at 1 µM ([1]; 1 uM (1,000 nM)): 101%

C[C@@H]1CCN(C(=O)CC#N)C[C@@H]1N(C)c1ncnc2[nH]ccc12 [Compound 11, Tofactinib]
Inh % on TMD-8 cell line (AVG) ([1]; 0.01 uM (10 nM)): 6.02%
Inh % on TMD-8 cell line (AVG) ([1]; 0.1 uM (100 nM)): 1.31%
Inh % on TMD-8 cell line (AVG) ([1]; 1 uM (1,000 nM)): 6.66%
Paw volume (mL), Mean ([3]; Day 0): 1.00 mL
Paw volume (mL), Mean ([3]; Day 17): 1.54*** mL
Paw volume (mL), Mean ([3]; Day 26): 1.37*** mL
Paw volume (mL), Mean ([3]; Day 28): 1.33*** mL
Paw volume (mL), Mean ([3]; Day 31): 1.23*** mL
Paw volume (mL), Mean ([3]; Day 33): 1.23*** mL
Pathological score (Mean ± SEM), Bone resorption ([3]; AA study, 11, 3 mg/kg): 0.5 ± 0.22
Pathological score (Mean ± SEM), Cartilage injury ([3]; AA study, 11, 3 mg/kg): 0.2 ± 0.20
Pathological score (Mean ± SEM), Inflammatory cell infiltration ([3]; AA study, 11, 3 mg/kg): 1.9 ± 0.18
Pathological score (Mean ± SEM), Pannus growth ([3]; AA study, 11, 3 mg/kg): 0.4 ± 0.22
Pathological score (Mean ± SEM), Total ([3]; AA study, 11, 3 mg/kg): 3.0 ± 0.73

CC1(C)CCC(CN2CCN(c3ccc(C(=O)NS(=O)(=O)c4ccc(NCC5CCOCC5)c([N+](=O)[O-])c4)c(Oc4cnc5[nH]ccc5c4)c3)CC2)=C(c2ccc(Cl)cc2)C1 [Compound 12, Venetoclax]
inhibition at 0.01 µM ([1]; 0.01 uM (10 nM)): 11.1%
inhibition at 0.1 µM ([1]; 0.1 uM (100 nM)): 18.8%
inhibition at 1 µM ([1]; 1 uM (1,000 nM)): 37.6%
Inh % on TMD-8 cell line (AVG) ([1]; 0.01 uM (10 nM)): 11.12%
Inh % on TMD-8 cell line (AVG) ([1]; 0.1 uM (100 nM)): 18.81%
Inh % on TMD-8 cell line (AVG) ([1]; 1 uM (1,000 nM)): 37.55%
Antitumor effect (%) ([2]; FIG. 12, 14 days, 5 mg/kg): 12%

Cc1cc(O)c(-c2ccc([C@@H](C)CN(C)C)cc2)c2c1[nH]c(=O)c1sccc12 [Compound 13, (R)-9-(4-(1-(dimethylamino)propan-2-yl)phenyl)-8-hydroxy-6-methylthieno[2,3-c]quinolin-4(5H)-one]
inhibition at 0.01 µM ([1]; 0.01 uM (10 nM)): 8.71%
inhibition at 0.1 µM ([1]; 0.1 uM (100 nM)): 49.1%
inhibition at 1 µM ([1]; 1 uM (1,000 nM)): 101%
